Data as given in patent US20260234125A1, “CYCLIC AMINE DERIVATIVE, AND COMPOSITION AND USE THEREOF” (SHANGHAI JINGXIN BIOMEDICAL CO., LTD., priority 2023, published 2026).

Key:
[1] = tested on: Salmonella typhimurium TA98; test: Salmonella typhimurium reverse mutation test, TA98; type: cell-based; set-up: key: + indicates a positive mutagenic result; − indicates a negative mutagenic result
Method: (§1) The revived strains or a single colony from the master plate were inoculated into the broth, and cultured in a thermostat gas bath vibrator at 100 to 120 rpm and 37±1° C. for 10 to 16 hours, marked and stored for later use. The bottom agar medium (containing an appropriate amount of agar, Vogel-Bonner buffer, 20% glucose solution and 20% magnesium sulfate solution) was poured into a six-well plate, approximately […] into each well, and allowed to cool and solidify naturally, marked each well and stored for later use.
(§2) Three wells were set up in each group for parallel experiments. The top agar medium was sterilized under high pressure and kept warm at about 65° C. In each test tube, 0.1 mL of negative control (DMSO) or positive control or test sample, 0.1 mL of bacterial solution suspension, 0.5 mL of phosphate buffer (0.2M PBS) (−S9) or 0.5 mL of S9 mixed solution (+S9) and 2.5 mL top culture medium were added, after vortex mixing, and then quickly and evenly spread on the culture dish which was already spreaded with the bottom agar medium. After natural cooling and solidification, the culture dish was inverted and placed in a 37° C. incubator for 48 to 72 hours. After culturing for 48 to 72 hours, the culture dish was taken out, and the number of revertant colonies in each well was counted, the growth background was observed under a microscope to determine whether there was antibacterial or bactericidal activity, and the experimental results were recorded.

[2] = tested on: Salmonella typhimurium TA1537; test: Salmonella typhimurium reverse mutation test, TA1537; type: cell-based; set-up: key: + indicates a positive mutagenic result; − indicates a negative mutagenic result
Method: as §1, §2

[3] = Bioavailability determination in cynomolgus monkeys; type: in vivo; settings: cynomolgus monkey, plasma, 1 mg/kg intravenous and 7.5 mg/kg oral gavage, read-out: bioavailability F
Method: • 1. Experimental purpose: The purpose of this test is to test the bioavailability of the compound in cynomolgus monkeys • 2. Experimental methods: The cynomolgus monkeys were housed with a standard light cycle (12 hours light/12 hours dark), at a room temperature of 18-26° C. and a relative humidity of 40-70%, with free access to water and normal diet. Five days prior to the study, the cynomolgus monkeys were randomly assigned to an intravenous administration group and an oral administration group (n=2/group) on their body weight for the study. The administration volume was calculated according to the body weight of the animals on the day of administration, and the administration volume was 2 mL/kg, the single intravenous administration was performed at a dose of 1 mg/kg, and the solvent was 5% DMSO, 5% Solutol, and 90% Saline. Blood was collected from the forelimb vein or other suitable veins at 0.083 h, 0.25 h, 0.5 h, 1 h, 2 h, 4 h, 6 h, 8 h, 12 h, 24 h, 48 h and 72 h after administration. The administration volume was calculated according to the weight of the animals on the day of administration, and the administration volume was 5 mL/kg, the single oral gavage administration was performed at a dose of 7.5 mg/kg, and the solvent was 1% HEC and 0.25% Tween 80 in Water. […]

[4] = biological target: T1, hERG potassium channel (Homo sapiens, UniProt Q12809); test: hERG whole-cell patch clamp experiment; type: cell-based; settings: HEK-293 cells that express hERG, HEK-293-hERG cell, read-out: inhibition rate
T1 construct: expressed in transfected cells; host or cells: HEK-293-hERG cells
T1 sequence (Q12809 whole entry): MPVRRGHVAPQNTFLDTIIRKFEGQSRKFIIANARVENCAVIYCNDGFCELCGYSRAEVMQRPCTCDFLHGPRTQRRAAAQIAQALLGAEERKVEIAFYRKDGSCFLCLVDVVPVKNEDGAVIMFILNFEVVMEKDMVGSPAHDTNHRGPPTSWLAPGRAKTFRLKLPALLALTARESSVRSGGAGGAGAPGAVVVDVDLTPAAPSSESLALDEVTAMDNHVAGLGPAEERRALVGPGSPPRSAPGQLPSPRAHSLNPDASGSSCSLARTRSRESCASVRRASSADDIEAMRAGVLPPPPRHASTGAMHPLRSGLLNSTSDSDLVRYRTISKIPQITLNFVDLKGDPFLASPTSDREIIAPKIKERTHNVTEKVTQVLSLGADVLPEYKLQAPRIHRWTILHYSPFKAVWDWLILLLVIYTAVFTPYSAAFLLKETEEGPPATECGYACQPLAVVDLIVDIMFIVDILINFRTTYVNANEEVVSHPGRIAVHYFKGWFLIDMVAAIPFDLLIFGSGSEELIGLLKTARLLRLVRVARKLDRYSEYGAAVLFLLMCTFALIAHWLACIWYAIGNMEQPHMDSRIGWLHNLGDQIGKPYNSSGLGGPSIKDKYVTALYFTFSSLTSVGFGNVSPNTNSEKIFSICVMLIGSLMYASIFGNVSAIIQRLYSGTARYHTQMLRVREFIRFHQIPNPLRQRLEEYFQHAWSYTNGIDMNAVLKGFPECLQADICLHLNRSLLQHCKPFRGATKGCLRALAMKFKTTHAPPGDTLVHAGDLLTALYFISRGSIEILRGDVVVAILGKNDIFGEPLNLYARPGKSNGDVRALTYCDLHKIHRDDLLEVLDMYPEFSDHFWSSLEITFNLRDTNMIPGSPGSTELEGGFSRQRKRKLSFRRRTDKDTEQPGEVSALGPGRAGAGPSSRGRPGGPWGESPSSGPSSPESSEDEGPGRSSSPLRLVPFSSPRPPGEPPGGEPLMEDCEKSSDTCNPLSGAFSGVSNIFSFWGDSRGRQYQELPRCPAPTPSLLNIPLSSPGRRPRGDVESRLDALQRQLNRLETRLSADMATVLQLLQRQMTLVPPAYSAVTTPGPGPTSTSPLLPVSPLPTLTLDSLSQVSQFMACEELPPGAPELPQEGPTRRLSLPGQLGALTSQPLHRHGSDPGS
Method: • 1. Experimental purpose: The purpose of this test is to test the inhibition rate of the compounds on the hERG potassium channel • 2. Experimental methods: The hERG current was recorded using the whole-cell patch clamp technique. A suspension of HEK-293-hERG cell was added to a small culture dish and placed on an inverted microscope stage. After the cells adhered to the dish, extracellular fluid was perfused at a flow rate of 1-2 mL/minute. The glass microelectrode was pulled in two steps by a microelectrode puller, after the electrode was filled with internal fluid, its water resistance was 2-5 MΩ. After establishing the whole-cell recording mode, the holding potential was maintained at −80 mV. A depolarizing voltage to +60 mV was applied for 850 ms, and then followed by repolarization to −50 mV for 1275 ms to elicit the hERG tail current. This set of pulse programs was repeated every 15 seconds throughout the experiment. After the current stabilized, the test compound was administered via continuous extracellular perfusion from low concentration to high concentration. Starting from a low concentration, perfusion was continued until the drug effect was stable, and then the next concentration was perfused.

[5] = tested on: Salmonella typhimurium TA1535; test: Salmonella typhimurium reverse mutation test, TA1535; type: cell-based; set-up: key: + indicates a positive mutagenic result; − indicates a negative mutagenic result
Method: as §1, §2

O=C(O)[C@@H](Cc1cccc(CN(Cc2cccc(C[C@H](C(=O)O)[C@H]3CCNC3)c2)Cc2cccc(C[C@H](C(=O)O)[C@H]3CCNC3)c2)c1)[C@H]1CCNC1 [Comparative Example 1, reference compound]
mutagenicity ([1]; TA98, +S9, 62 μg/dish): −
mutagenicity ([1]; TA98, +S9, 185 μg/dish): −
mutagenicity ([1]; TA98, +S9, 556 μg/dish): +
mutagenicity ([1]; TA98, +S9, 1667 μg/dish): +
mutagenicity ([1]; TA98, +S9, 5000 μg/dish): +
mutagenicity ([1]; TA98, −S9, 62 μg/dish): −
mutagenicity ([1]; TA98, −S9, 185 μg/dish): +
mutagenicity ([1]; TA98, −S9, 556 μg/dish): +
mutagenicity ([1]; TA98, −S9, 1667 μg/dish): +
mutagenicity ([1]; TA98, −S9, 5000 μg/dish): +
mutagenicity ([2]; TA1537, +S9, 62 μg/dish): −
mutagenicity ([2]; TA1537, +S9, 185 μg/dish): −
mutagenicity ([2]; TA1537, +S9, 556 μg/dish): −
mutagenicity ([2]; TA1537, +S9, 1667 μg/dish): −
mutagenicity ([2]; TA1537, +S9, 5000 μg/dish): −
mutagenicity ([2]; TA1537, −S9, 62 μg/dish): −
mutagenicity ([2]; TA1537, −S9, 185 μg/dish): −
mutagenicity ([2]; TA1537, −S9, 556 μg/dish): −
mutagenicity ([2]; TA1537, −S9, 1667 μg/dish): −
mutagenicity ([2]; TA1537, −S9, 5000 μg/dish): −
bioavailability [3]: 10.2%
inhibition at 0.3 µM [4]: 7.37%
inhibition at 1 µM [4]: 24.6%
inhibition at 3 µM [4]: 29.2%
mutagenicity ([5]; TA1535, +S9, 62 μg/dish): −
mutagenicity ([5]; TA1535, +S9, 185 μg/dish): −
mutagenicity ([5]; TA1535, +S9, 556 μg/dish): −
mutagenicity ([5]; TA1535, +S9, 1667 μg/dish): −
mutagenicity ([5]; TA1535, +S9, 5000 μg/dish): −
mutagenicity ([5]; TA1535, −S9, 62 μg/dish): −
mutagenicity ([5]; TA1535, −S9, 185 μg/dish): −
mutagenicity ([5]; TA1535, −S9, 556 μg/dish): −
mutagenicity ([5]; TA1535, −S9, 1667 μg/dish): −
mutagenicity ([5]; TA1535, −S9, 5000 μg/dish): −

O=C(O)[C@@H](Cc1cccc(CN(Cc2cccc(C[C@H](C(=O)O)[C@H]3CCNC3)c2)C(=O)c2cccc(C[C@H](C(=O)O)[C@H]3CCNC3)c2)c1)[C@H]1CCNC1 [Example 5]
mutagenicity ([1]; TA98, +S9, 62 μg/dish): −
mutagenicity ([1]; TA98, +S9, 185 μg/dish): −
mutagenicity ([1]; TA98, +S9, 556 μg/dish): −
mutagenicity ([1]; TA98, +S9, 1667 μg/dish): −
mutagenicity ([1]; TA98, +S9, 5000 μg/dish): −
mutagenicity ([1]; TA98, −S9, 62 μg/dish): −
mutagenicity ([1]; TA98, −S9, 185 μg/dish): −
mutagenicity ([1]; TA98, −S9, 556 μg/dish): −
mutagenicity ([1]; TA98, −S9, 1667 μg/dish): −
mutagenicity ([1]; TA98, −S9, 5000 μg/dish): −
mutagenicity ([2]; TA1537, +S9, 62 μg/dish): −
mutagenicity ([2]; TA1537, +S9, 185 μg/dish): −
mutagenicity ([2]; TA1537, +S9, 556 μg/dish): −
mutagenicity ([2]; TA1537, +S9, 1667 μg/dish): −
mutagenicity ([2]; TA1537, +S9, 5000 μg/dish): −
mutagenicity ([2]; TA1537, −S9, 62 μg/dish): −
mutagenicity ([2]; TA1537, −S9, 185 μg/dish): −
mutagenicity ([2]; TA1537, −S9, 556 μg/dish): −
mutagenicity ([2]; TA1537, −S9, 1667 μg/dish): −
mutagenicity ([2]; TA1537, −S9, 5000 μg/dish): −
bioavailability [3]: 16.8%
inhibition at 0.3 µM [4]: -0.06%
inhibition at 1 µM [4]: 3.47%
inhibition at 3 µM [4]: 3.67%
mutagenicity ([5]; TA1535, +S9, 62 μg/dish): −
mutagenicity ([5]; TA1535, +S9, 185 μg/dish): −
mutagenicity ([5]; TA1535, +S9, 556 μg/dish): −
mutagenicity ([5]; TA1535, +S9, 1667 μg/dish): −
mutagenicity ([5]; TA1535, +S9, 5000 μg/dish): −
mutagenicity ([5]; TA1535, −S9, 62 μg/dish): −
mutagenicity ([5]; TA1535, −S9, 185 μg/dish): −
mutagenicity ([5]; TA1535, −S9, 556 μg/dish): −
mutagenicity ([5]; TA1535, −S9, 1667 μg/dish): −
mutagenicity ([5]; TA1535, −S9, 5000 μg/dish): −
